Experimental data from patent US11046691B1 (IDEAYA BIOSCIENCES, INC., priority 2018, dated 2021).

The compounds below were run against T1, hMAT2A (Homo sapiens (Human), UniProt P31153) (assay: Malachite Green Assay (MAT2A enzyme inhibition)). Conditions: hMAT2A 50 nM, substrates 500 uM each, 1 hour.
Format: biochemical
Protocol: The ability of the compound of present disclosure to inhibit MAT2A enzyme was determined using the Malachite Green or Phosphate Sensor Fluorescence Assay described below.
L-methionine Substrate: Alfa Aesar catalog #J61904
ATP Substrate: Alfa Aesar cat #J60336
Malachite Green Detection Reagent: Millipore Sigma catalog #MAK307-1KT
Assay buffer: 50 mM Tris, pH 7.5/50 mM KCl/10 mM MgCl2/0.01% Brij-35/1 mM DTT/0.1% BGG
The plate was centrifuged at 1000 rpm for 1 minute and then incubated at room temperature for 1 hour. 5 μL of malachite green detection reagent was added to all the test wells and the plate was centrifuged at 1000 rpm for 1 minute and then incubated at room temperature for 30 minutes. The plate was read for absorbance at 620 nm on a plate reader (e.g., Infinite M1000).

T1 sequence (P31153 whole entry): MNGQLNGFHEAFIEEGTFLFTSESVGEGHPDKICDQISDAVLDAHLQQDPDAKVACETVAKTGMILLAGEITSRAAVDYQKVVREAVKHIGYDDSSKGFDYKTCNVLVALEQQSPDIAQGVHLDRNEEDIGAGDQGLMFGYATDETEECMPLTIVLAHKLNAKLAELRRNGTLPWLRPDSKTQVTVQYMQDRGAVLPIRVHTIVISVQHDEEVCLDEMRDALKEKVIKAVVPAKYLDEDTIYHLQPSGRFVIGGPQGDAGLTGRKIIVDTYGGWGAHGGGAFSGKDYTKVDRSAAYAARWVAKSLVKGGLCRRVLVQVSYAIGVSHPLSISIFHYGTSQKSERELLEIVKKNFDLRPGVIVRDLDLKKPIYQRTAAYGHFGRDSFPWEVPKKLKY

SMILES | IC50
CNc1nc(=O)n(-c2ccccn2)c2cc(Cl)ccc12 | 200 to 500 nM
CNc1nc(=O)n(-c2ncccn2)c2cc(Cl)ccc12 | < 200 nM
CNc1nc(=O)n(-c2cnccn2)c2cc(Cl)ccc12 | 200 to 500 nM
CNc1nc(=O)n(-c2cncnc2)c2cc(Cl)ccc12 | < 200 nM
CNc1nc(=O)n(-c2cn[nH]c2)c2cc(Cl)ccc12 | < 200 nM
CNc1nc(=O)n(-c2ccccc2)c2cc(Br)ccc12 | < 200 nM
CNc1nc(=O)n(-c2cc(O)cc(F)c2)c2cc(Cl)ccc12 | < 200 nM
CNc1nc(=O)n(-c2ccccc2)c2cc(Cl)c(F)cc12 | < 200 nM
CNc1nc(=O)n(-c2ccccc2)c2cc(Cl)cc(F)c12 | < 200 nM
CNc1nc(=O)n(-c2ccncc2)c2cc(Cl)ccc12 | 1000 to 10000 nM
CNc1nc(=O)n(-c2ccccc2)c2cc(Cl)ccc12 [Example 2, 7-chloro-4-(methylamino)-1-phenylquinazolin-2(1H)-one] | < 200 nM
CNc1nc(=O)n(-c2nccs2)c2cc(Cl)ccc12 [Example 17, 7-chloro-4-(methylamino)-1-(thiazol-2-yl)-quinazolin-2(1H)-one] | < 200 nM
CNc1nc(=O)n(-c2cncs2)c2cc(Cl)ccc12 [Example 18, 7-chloro-4-(methylamino)-1-(thiazol-5-yl)-quinazolin-2(1H)-one] | < 200 nM
O=c1nc(NC2COC2)c2ccc(Cl)cc2n1-c1ccccc1 [Example 21, 7-Chloro-4-(oxetan-3-ylamino)-1-phenylquinazolin-2(1H)-one] | 200 to 500 nM
O=c1nc(N[C@H]2CCOC2)c2ccc(Cl)cc2n1-c1ccccc1 [Example 22, (S)-7-chloro-1-phenyl-4-((tetrahydro-furan-3-yl)amino)-quinazolin-2(1H)-one] | 200 to 500 nM
O=c1nc(NCc2ccccc2)c2ccc(Cl)cc2n1-c1ccccc1 [Example 23, 4-(benzylamino)-7-chloro-1-phenyl-quinazolin-2(1H)-one] | 200 to 500 nM
O=c1nc(N2CCC2)c2ccc(Cl)cc2n1-c1ccccc1 [Example 25, 4-(azetidin-1-yl)-7-chloro-1-phenyl-quinazolin-2(1H)-one] | < 200 nM
O=c1nc(N2CC[C@H](O)C2)c2ccc(Cl)cc2n1-c1ccccc1 [Example 26, (S)-7-chloro-4-(3-hydroxypyrrolidin-1-yl)-1-phenylquinazolin-2(1H)-one] | < 200 nM
CN1CCN(c2nc(=O)n(-c3ccccc3)c3cc(Cl)ccc23)CC1 [Example 27, 7-chloro-4-(4-methylpiperazin-1-yl)-1-phenyl-quinazolin-2(1H)-one] | 1000 to 10000 nM
O=c1nc(N2CCOCC2)c2ccc(Cl)cc2n1-c1ccccc1 [Example 28, 7-chloro-4-morpholino-1-phenyl-quinazolin-2(1H)-one] | 200 to 500 nM
O=c1nc(-n2cccn2)c2ccc(Cl)cc2n1-c1ccccc1 [Example 29, 7-chloro-1-phenyl-4-(1H-pyrazol-1-yl)quinazolin-2(1H)-one] | 1000 to 10000 nM
O=c1nc(NCC(F)F)c2ccc(Cl)cc2n1-c1ccccc1 [Example 31, 7-chloro-4((2,2-difluoroethyl)amino)-1-phenyl-quinazolin-2 (1H)-one] | 500 to 1000 nM
O=c1nc(Nc2ccccn2)c2ccc(Cl)cc2n1-c1ccccc1 [Example 32, 7-chloro-1-phenyl-4-(pyridin-2-yl-amino)quinazolin-2(1H)-one] | 200 to 500 nM
CN(C)c1nc(=O)n(-c2ccccc2)c2cc(Br)ccc12 [Example 34, 7-bromo-4-(dimethylamino)-1-phenyl-quinazolin-2(1H)-one] | < 200 nM
CN(C)c1nc(=O)n(-c2ccccc2)c2cc(F)ccc12 [Example 35, 4-(dimethylamino)-7-fluoro-1-phenyl-quinazolin-2(1H)-one] | < 200 nM
CN(C)c1nc(=O)n(-c2ccc(F)cc2)c2cc(Cl)ccc12 [Example 36, 4-(dimethylamino)-7-chloro-1-(4-fluorophenyl)-hydroquinazolin-2-one] | < 200 nM
CN(C)c1nc(=O)n(-c2cc(O)cc(F)c2)c2cc(Cl)ccc12 [Example 37, 4-(dimethylamino)-7-chloro-1-(5-fluoro-3-hydroxyphenyl)hydro-quinazolin-2-one] | < 200 nM
O=c1nc(N2CCC2)c2ccc(Cl)cc2n1-c1cc(O)cc(F)c1 [Example 38, 4-azetidinyl-7-chloro-1-(5-fluoro-3-hydroxy-phenyl)hydroquinazolin-2-one] | < 200 nM

The compounds below were run against T1, hMAT2A (assay: Phosphate Sensor Fluorescence Assay (MAT2A enzyme inhibition)). Conditions: L-methionine 500 uM, ATP 500 uM, class symbols.
Format: biochemical
Summary of the method: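 Recombinant MAT2A preincubated 15 min at room temperature with compound, then reacted 1 h at room temperature with 500 uM L-methionine and 500 uM ATP in Tris pH 7.5 buffer containing PNP/7-MEG.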

SMILES | IC50
CS(=O)(=O)CCNc1nc(=O)n(-c2ccccc2Cl)c2cc(C3CC3)c(C#N)cc12 [Example 403, 1-(2-chlorophenyl)-7-cyclopropyl-4-((2-(methylsulfonyl)ethyl)amino)-2-oxo-1,2-dihydroquinazoline-6-carbonitrile] | 1000 to 10000 nM
COc1nc(=O)n(-c2cccnc2C)c2cc(C(F)(F)F)ccc12 [Example 405] | < 200 nM
CNc1nc(=O)n(-c2ccccc2Cl)c2cc(C3CC3)cc(OC(F)F)c12 [Example 406, 5-(difluoromethoxy)-1-(2-chlorophenyl)-7-cyclopropyl-4-(methylamino)hydro-quinazolin-2-one] | 200 to 500 nM
COc1cc(C2CC2)cc2c1c(NCC1(F)CC1)nc(=O)n2-c1ccccc1Cl [Example 407, 1-(2-chlorophenyl)-7-cyclopropyl-4-{[(fluorocyclopropyl)methyl]amino}-5-methoxyhydroquinazolin-2-one] | < 200 nM
N#Cc1cc2c(NCC3CCO3)nc(=O)n(-c3ccccc3Cl)c2cc1C1CC1 (stereo not shown) [Example 408, 1-(2-chlorophenyl)-7-cyclopropyl-4-((oxetan-2-ylmethyl)amino)-2-oxo-1,2-dihydroquinazoline-6-carbonitrile] | 500 to 1000 nM
N#Cc1cc2c(NCC3CC3)nc(=O)n(-c3ccccc3Cl)c2cc1C1CC1 [Example 409, 1-(2-chlorophenyl)-7-cyclopropyl-4-((cyclopropylmethyl)amino)-2-oxo-1,2-dihydroquinazoline-6-carbonitrile] | < 200 nM
CCc1cc(C2CC2)cc2c1c(NC)nc(=O)n2-c1ccccc1C [Example 410, 7-cyclopropyl-5-ethyl-4-(methylamino)-1-(2-methylphenyl)hydroquinazolin-2-one] | < 200 nM
O=c1nc(NCC2CC2)c2cc(Cl)c(C3CC3)cc2n1-c1ccccc1Cl [Example 411] | < 200 nM
O=c1nc(Nc2cnoc2)c2cc(Cl)c(Br)cc2n1-c1ccccc1Cl [Example 412, 7-bromo-6-chloro-1-(2-chlorophenyl)-4-(isoxazol-4-ylamino)hydroquinazolin-2-one] | < 200 nM
O=c1nc(N[C@@H]2C[C@@H]2F)c2ccc(C3CC3)cc2n1-c1ccccc1Cl [Example 413, 4-[((2S,1R)-2-fluorocyclopropyl)amino]-1-(2-chlorophenyl)-7-cyclopropyl-hydroquinazolin-2-one] | < 200 nM
CNc1nc(=O)n(-c2ccccc2)c2nc(C(C)C)ccc12 [Example 414, 4-(methylamino)-7-(methylethyl)-1-phenylpyrido[2,3-d]pyrimidin-2(1H)-2-one] | < 200 nM
CNc1nc(=O)n(-c2ccccc2Cl)c2cc(C3CC3)c(Br)cc12 [Example 417, 6-bromo-1-(2-chlorophenyl)-7-cyclo-propyl-4-(methylamino)hydro-quinazolin-2-one] | < 200 nM
O=c1nc(N[C@H]2C[C@@H]2F)c2ccc(OC(F)(F)F)cc2n1-c1ccccc1Cl [Example 418, 1-(2-chlorophenyl)-4-(((1S,2S)-2-fluorocyclopropyl)amino)-7-(trifluoro-methoxy)quinazolin-2(1H)-one] | < 200 nM
CNc1nc(=O)n(-c2cccc(CC(=O)O)c2)c2cc(Cl)ccc12 [Example 419, 2-(3-(7-chloro-4-(methylamino)-2-oxoquinazolin-1(2H)-yl)phenyl)acetic acid] | < 200 nM
CNc1nc(=O)n(-c2ccccc2)c2cc(C(F)(F)F)cc(F)c12 [Example 420, 5-fluoro-4-(methylamino)-1-phenyl-7-(trifluoromethyl)hydroquinazolin-2-one] | < 200 nM
O=c1nc(Nc2ccncc2)c2ccc(C(F)(F)F)nc2n1-c1ccccc1Cl [Example 421, 1-(2-chlorophenyl)-4-(pyridin-4-yl-amino)-7-(trifluoromethyl)pyrido[2,3-d]-pyrimidin-2(1H)-one] | < 200 nM
O=c1nc(OC2CC2)c2ccc(C(F)(F)F)nc2n1-c1ccccc1Cl [Example 422, 1-(2-chlorophenyl)-4-cyclopropoxy-7-(trifluoromethyl)pyrido[2,3-d]pyrimidin-2(1H)-one] | < 200 nM
COc1nc(=O)n(-c2ccccc2Cl)c2cc(C3CC3)ccc12 [Example 423, 1-(2-chlorophenyl)-7-cyclopropyl-4-methoxyhydroquinazolin-2-one] | < 200 nM
O=c1nc(N[C@H]2C[C@H]2F)c2ccc(C(F)(F)F)cc2n1-c1ccccc1 [Example 424, 4-(((1S,2R)-2-fluorocyclopropyl)amino)-1-phenyl-7-(trifluoromethyl)quinazolin-2(1H)-one] | < 200 nM
CC(F)(F)c1ccc2c(NCC3CC3)nc(=O)n(-c3ccccc3Cl)c2c1 [Example 425, 1-(2-chlorophenyl)-4-((cyclopropyl-methyl)amino)-7-(1,1-difluoroethyl)-quinazolin-2(1H)-one] | < 200 nM
CNc1nc(=O)n(-c2ccccc2Cl)c2cc(C3CC3)ccc12 [Example 426, 1-(2-chlorophenyl)-7-cyclopropyl-4-(methylamino)quinazolin-2(1H)-one] | < 200 nM
